Experimental data from the NIST ThermoML archive (doi:10.1021/je300148f).

Conditions: Liquid, isochoric method

CCC [propane]
Conditions	mass density [kg/m3]
207.35 K, 1466.9 kPa	609.37
208.31 K, 2745.8 kPa	609.32
209.06 K, 3635.6 kPa	609.28
209.75 K, 4364.7 kPa	609.25
215.17 K, 10724 kPa	608.98
222.43 K, 1045.6 kPa	592.03
222.75 K, 19646 kPa	608.63
223.37 K, 2016.7 kPa	591.98
224.52 K, 3087.1 kPa	591.93
225.47 K, 4153.8 kPa	591.89
226.91 K, 5632.5 kPa	591.82
231.06 K, 30008 kPa	608.23
231.07 K, 10051 kPa	591.62
239.51 K, 39217 kPa	607.87
240.49 K, 1194 kPa	571.45
240.67 K, 19671 kPa	591.21
240.92 K, 1528.8 kPa	571.44
242.87 K, 3265.5 kPa	571.39
244.55 K, 4758.9 kPa	571.35
245.44 K, 5554 kPa	571.33
250.1 K, 9711.4 kPa	571.2
250.12 K, 29984 kPa	590.79
251.11 K, 51133 kPa	607.38
259.96 K, 1060.8 kPa	547.54
261.06 K, 19770 kPa	571.13
261.18 K, 40016 kPa	590.35
261.19 K, 1975 kPa	547.51
262.52 K, 2951.9 kPa	547.48
262.52 K, 3059.7 kPa	547.47
263.78 K, 4004 kPa	547.44
265.28 K, 5120.2 kPa	547.4
266.44 K, 5840.1 kPa	547.37
267.87 K, 6954.7 kPa	547.34
270.11 K, 49092 kPa	589.98
270.22 K, 1044.7 kPa	533.77
271.68 K, 2041.5 kPa	533.71
272.12 K, 10829 kPa	547.66
272.12 K, 30057 kPa	570.94
272.13 K, 10235 kPa	547.22
273.11 K, 3025.3 kPa	533.66
274.51 K, 3979.1 kPa	533.61
276.2 K, 5186.1 kPa	533.54
283.08 K, 995.2 kPa	515.52
283.43 K, 38987 kPa	570.26
283.64 K, 10260 kPa	533.26
284.77 K, 2002.1 kPa	515.46
284.98 K, 19876 kPa	546.88
286.56 K, 3090.5 kPa	515.39
288.23 K, 4086.1 kPa	515.33
289.9 K, 5086.2 kPa	515.27
295.92 K, 49573 kPa	569.78
297.68 K, 1075 kPa	493.21
298.14 K, 10031 kPa	514.99
298.15 K, 10038 kPa	514.99
298.15 K, 19981 kPa	532.71
298.15 K, 30027 kPa	546.51
298.15 K, 30100 kPa	546.7
298.18 K, 19921 kPa	532.75
298.19 K, 20084 kPa	532.74
299.62 K, 2037.9 kPa	493.14
301.57 K, 3036.9 kPa	493.08
303.56 K, 4053.8 kPa	493.01
305.53 K, 5060.2 kPa	492.95
311.44 K, 39238 kPa	545.97
313.68 K, 30193 kPa	532.17
315.23 K, 2005.2 kPa	466.11
315.23 K, 9905.5 kPa	492.64
315.23 K, 10017 kPa	492.63
315.23 K, 19842 kPa	514.41
317.42 K, 2930.2 kPa	466.04
319.89 K, 3981.7 kPa	465.97
322.25 K, 4976.5 kPa	465.9
332.01 K, 29682 kPa	513.86
333.97 K, 19538 kPa	492.04
334.14 K, 9861.6 kPa	465.55
344.57 K, 49972 kPa	531.11
353.14 K, 29253 kPa	491.45
353.14 K, 42004 kPa	513.17
353.15 K, 17921 kPa	464.99

FC(F)(F)C(F)(F)C(F)(F)F [octafluoropropane]
Conditions	mass density [kg/m3]
203.51 K, 5337.7 kPa	1748.65
203.54 K, 25066 kPa	1795.66
207.93 K, 30528 kPa	1795.05
207.94 K, 10279 kPa	1747.98
212.07 K, 14905 kPa	1747.39
212.65 K, 36376 kPa	1794.41
216.5 K, 40978 kPa	1793.89
216.54 K, 1000.8 kPa	1689.31
216.88 K, 20281 kPa	1746.74
217.62 K, 2018.3 kPa	1689.13
218.87 K, 3201.2 kPa	1688.94
220.1 K, 4356.8 kPa	1688.75
221 K, 5191.7 kPa	1688.62
221.04 K, 25052 kPa	1746.18
225.96 K, 30368 kPa	1745.54
226.4 K, 10304 kPa	1687.87
230.5 K, 35314 kPa	1744.96
231.73 K, 15327 kPa	1687.19
234.92 K, 39898 kPa	1744.41
235.64 K, 915.8 kPa	1615.88
236.89 K, 20178 kPa	1686.54
237.72 K, 1980.7 kPa	1615.62
239.2 K, 3133.7 kPa	1615.41
240.32 K, 3992.9 kPa	1615.26
241.96 K, 25015 kPa	1685.92
241.97 K, 5288.2 kPa	1615.05
247.06 K, 29611 kPa	1685.32
248.4 K, 10248 kPa	1614.25
253.05 K, 1037.7 kPa	1548.82
253.35 K, 35422 kPa	1684.57
254.58 K, 2042.7 kPa	1548.62
254.84 K, 15219 kPa	1613.5
256.2 K, 3092.6 kPa	1548.41
257.67 K, 4032.3 kPa	1548.23
257.99 K, 39644 kPa	1684.03
259.38 K, 5163.9 kPa	1548.03
260.6 K, 5918.9 kPa	1547.89
261.38 K, 20247 kPa	1612.75
262.2 K, 6953.3 kPa	1547.71
264.92 K, 1305.5 kPa	1498.9
266.69 K, 2167.6 kPa	1498.5
267.42 K, 10407 kPa	1547.12
267.61 K, 24742 kPa	1612.07
268.4 K, 3123.5 kPa	1498.5
270.01 K, 4060.3 kPa	1498.31
272.1 K, 5218.8 kPa	1498.08
273.85 K, 29781 kPa	1611.39
274.19 K, 14632 kPa	1546.4
278.85 K, 1048.7 kPa	1431.66
280.31 K, 34598 kPa	1610.69
280.62 K, 9990.2 kPa	1497.18
280.96 K, 2016.5 kPa	1431.43
282.61 K, 20193 kPa	1545.52
283.12 K, 3037.6 kPa	1431.2
285.2 K, 4021.6 kPa	1430.98
287.19 K, 39685 kPa	1609.96
287.23 K, 4975.5 kPa	1430.78
289.39 K, 15154 kPa	1496.29
290.43 K, 25199 kPa	1544.72
294.19 K, 1027.2 kPa	1348.77
296.89 K, 2032 kPa	1348.25
298.14 K, 10127 kPa	1429.72
298.14 K, 10227 kPa	1432.13
298.15 K, 20139 kPa	1495.43
298.17 K, 30128 kPa	1543.94
299.56 K, 3026.3 kPa	1348.25
302.24 K, 4025.2 kPa	1348
305.19 K, 5144.5 kPa	1347.73
305.57 K, 34457 kPa	1543.21
306.47 K, 24759 kPa	1494.63
308.23 K, 15310 kPa	1431.18
313.2 K, 39261 kPa	1542.45
316.93 K, 30165 kPa	1493.65
318.2 K, 1978.9 kPa	1206.47
318.2 K, 2006.9 kPa	1206.47
318.2 K, 10061 kPa	1346.6
318.2 K, 19323 kPa	1427.89
318.2 K, 20116 kPa	1430.27
318.21 K, 9971.7 kPa	1346.6
322.1 K, 2987.3 kPa	1206.16
325.72 K, 35057 kPa	1492.81
326.06 K, 3974.1 kPa	1205.86
328.08 K, 24771 kPa	1429.38
329.83 K, 4928.6 kPa	1205.58
330.81 K, 14738 kPa	1345.54
332.72 K, 39008 kPa	1492.14
339.5 K, 7422.8 kPa	1204.86
341.2 K, 30200 kPa	1425.83
344.83 K, 20114 kPa	1344.37
353.16 K, 23269 kPa	1343.69
353.16 K, 35743 kPa	1424.77
353.17 K, 10953 kPa	1203.86
